We go through 35 molecules from BigSolDB 2.1.

Each structure is given as a SMILES string.

For this data set the following is noted: 298 K.

The term solubility (mole fraction) denotes solubility expressed as the solute's share of all molecules.

`O=S(=O)(Nc1ncccc1Cl)c1ccccc1`: the solubility (mole fraction) amounted to 6.58e-05 (in n-hexane), 0.00282 (in n-octanol) and 1.17e-05 (in water).

On to `Nc1ccc(S(=O)(=O)Nc2cccc(Cl)c2Cl)cc1`, for which the solubility (mole fraction) runs as follows: (in n-hexane) 6.05e-06; (in n-octanol) 0.000681; (in water) 3.32e-07.

Molecule `O=[N+]([O-])c1ccc(S(=O)(=O)Nc2nccs2)cc1` yielded a solubility (mole fraction) (in water) of 4.23e-06.

For `Nc1ccc(S(=O)(=O)Nc2ccc(Cl)c(Cl)c2)cc1`, the solubility (mole fraction) reads like this: (in n-octanol) 0.000422; (in water) 2.05e-07.

Take `Nc1ccc(S(=O)(=O)Nc2ccc([N+](=O)[O-])cc2)cc1`: the solubility (mole fraction) runs as follows: (in n-octanol) 0.003; (in water) 3.65e-06.

`O=S(=O)(Nc1ccc(Cl)cc1)c1ccccc1`: the solubility (mole fraction) was determined as 1.37e-06 (in n-hexane), 0.0421 (in n-octanol) and 1.68e-06 (in water).

Molecule `Nc1ccc(S(=O)(=O)Nc2ccc([N+](=O)[O-])cc2Br)cc1` registered a solubility (mole fraction) (in n-octanol) of 0.000308 and a solubility (mole fraction) (in water) of 3.01e-07.

For the molecule `Nc1ccc(S(=O)(=O)Nc2ccc(Cl)cc2)cc1`, the solubility (mole fraction) is, setting by setting: (in n-octanol) 0.00145; (in water) 1.19e-06.

`O=S(=O)(Nc1ccccc1Cl)c1ccccc1` yielded a solubility (mole fraction) (in n-hexane) of 7.73e-06, a solubility (mole fraction) (in n-octanol) of 0.0036 and a solubility (mole fraction) (in water) of 8.69e-07.

Turning to `CCN(CC)S(=O)(=O)c1ccc(N)cc1`, the solubility (mole fraction) reads like this: (in n-hexane) 2.41e-05; (in n-octanol) 0.0108; (in water) 4.27e-05.

Consider `Nc1ccc(S(=O)(=O)Nc2cc(Cl)c(Cl)cc2Cl)cc1`, for which the solubility (mole fraction) was determined as 6.32e-06 (in n-hexane), 0.00109 (in n-octanol) and 2.51e-07 (in water).

For `Nc1ccc(S(=O)(=O)Nc2ccc(I)cc2)cc1`, the solubility (mole fraction) reads like this: (in n-octanol) 0.00163; (in water) 5.44e-07.

Turning to `Nc1ccc(S(=O)(=O)Nc2ccc(Cl)cc2)c(Cl)c1`, the solubility (mole fraction) by setting is: (in n-octanol) 0.00248; (in water) 4.72e-07.

`COc1ccc(NS(=O)(=O)c2ccc(N)cc2)cc1`: the solubility (mole fraction) came to 2.24e-06 (in n-hexane), 0.000233 (in n-octanol) and 1.32e-06 (in water).

For the molecule `Cc1cc(N)ccc1S(=O)(=O)Nc1ccc(Cl)cc1`, the solubility (mole fraction) runs as follows: (in n-hexane) 4.59e-06; (in n-octanol) 0.00356; (in water) 6.71e-07.

`Cc1cc(N)ccc1S(=O)(=O)Nc1ccccc1Cl` showed a solubility (mole fraction) (in n-hexane) of 1.08e-06, a solubility (mole fraction) (in n-octanol) of 0.000115 and a solubility (mole fraction) (in water) of 1.57e-07.

Turning to `CCOc1ccc(NS(=O)(=O)c2ccc([N+](=O)[O-])cc2)cc1`, the solubility (mole fraction) is 3.95e-06 (in n-hexane), 0.00125 (in n-octanol) and 3.41e-07 (in water).

On to `O=S(=O)(Nc1cccnc1Cl)c1ccccc1`, for which the solubility (mole fraction) (in n-hexane) stood at 2.63e-05 and the solubility (mole fraction) (in n-octanol) stood at 0.00151.

Take `CCOC(=O)c1ccc(NS(=O)(=O)c2ccccc2)nc1`: the solubility (mole fraction) was 0.0006 (in n-octanol) and 1.24e-06 (in water).

For `O=[N+]([O-])c1ccccc1NS(=O)(=O)c1ccccc1`, the solubility (mole fraction) was 0.0106 (in n-octanol) and 1.78e-06 (in water).

For the molecule `Cc1ccc(NS(=O)(=O)c2ccc([N+](=O)[O-])cc2)nc1`, the solubility (mole fraction) by setting is: (in n-octanol) 3.38e-05; (in water) 1.13e-06.

With `Nc1ccc(S(=O)(=O)N(c2ccccc2)c2ccccc2)cc1`, the solubility (mole fraction) reads like this: (in n-hexane) 5.4e-06; (in n-octanol) 0.000551; (in water) 4.84e-07.

`O=[N+]([O-])c1ccc(NS(=O)(=O)c2ccccc2)cc1`: the solubility (mole fraction) is, setting by setting: (in n-hexane) 3.16e-06; (in n-octanol) 0.0116; (in water) 2.11e-06.

As for `Nc1ccc(S(=O)(=O)Nc2ccccc2Cl)c(Cl)c1`, the solubility (mole fraction) reads like this: (in n-octanol) 7.4e-05; (in water) 1.19e-07.

As for `Cc1cc(N)ccc1S(=O)(=O)Nc1ccccc1[N+](=O)[O-]`, the solubility (mole fraction) is, setting by setting: (in n-hexane) 3.22e-06; (in n-octanol) 0.000198; (in water) 5.18e-07.

As to `N#Cc1ccc(NS(=O)(=O)c2ccc(N)cc2)cc1`, the solubility (mole fraction) was found to be 0.00129 (in n-octanol) and 5.47e-06 (in water).

As for `CCc1ccc(NS(=O)(=O)c2ccc(N)cc2)cc1`, the solubility (mole fraction) (in n-hexane) turned out to be 2.77e-06, the solubility (mole fraction) (in n-octanol) turned out to be 0.00104 and the solubility (mole fraction) (in water) was found to be 5.09e-07.

For the molecule `Nc1ccc(S(=O)(=O)Nc2cc(Cl)ccc2Cl)cc1`, the solubility (mole fraction) reads like this: (in n-hexane) 4.69e-06; (in n-octanol) 0.000529; (in water) 7.25e-07.

For the molecule `CN(C)S(=O)(=O)c1ccc(N)cc1`, the solubility (mole fraction) (in n-hexane) is 2.9e-06, the solubility (mole fraction) (in n-octanol) is 0.000873 and the solubility (mole fraction) (in water) was 3.21e-05.

With `O=S(=O)(Nc1ccccc1)c1ccccc1`, the solubility (mole fraction) was determined as 0.000101 (in n-hexane), 0.0335 (in n-octanol) and 8.49e-06 (in water).

Consider `Cc1ccc(NS(=O)(=O)c2ccc(N)cc2)c(Cl)c1`, for which the solubility (mole fraction) by setting is: (in n-hexane) 2.43e-06; (in n-octanol) 0.00158; (in water) 7.65e-07.

Regarding `CNS(=O)(=O)c1ccc(N)cc1`, the solubility (mole fraction) stood at 0.00486 (in n-octanol) and 0.00103 (in water).

Turning to `Cc1cc(Cl)ccc1NS(=O)(=O)c1ccc(N)cc1`, the solubility (mole fraction) was 0.00489 (in n-octanol) and 7.72e-07 (in water).

As for `Cc1ccc(NS(=O)(=O)c2ccc(N)cc2)cc1Cl`, the solubility (mole fraction) runs as follows: (in n-octanol) 0.000552; (in water) 1.53e-07.

`Cc1ccc(Cl)cc1NS(=O)(=O)c1ccc(N)cc1`: the solubility (mole fraction) worked out at 2.94e-06 (in n-hexane), 0.00188 (in n-octanol) and 1.61e-06 (in water).
